Data: ChEMBL document CHEMBL1134803, “Inhibition of fucosyltransferase V by a GDP-Azasugar” (Bioorg Med Chem Lett, 2001)
pIC50: −log10 of the molar value.

Tests used:
[1] = target: T1, 4-galactosyl-N-acetylglucosaminide 3-alpha-L-fucosyltransferase FUT5 (Homo sapiens, UniProt Q11128); test: Inhibitory activity against fucosyltransferase (FucT V) in the presence of fucosyl acceptor N-acetyllactosamine
T1 sequence (Q11128 whole entry): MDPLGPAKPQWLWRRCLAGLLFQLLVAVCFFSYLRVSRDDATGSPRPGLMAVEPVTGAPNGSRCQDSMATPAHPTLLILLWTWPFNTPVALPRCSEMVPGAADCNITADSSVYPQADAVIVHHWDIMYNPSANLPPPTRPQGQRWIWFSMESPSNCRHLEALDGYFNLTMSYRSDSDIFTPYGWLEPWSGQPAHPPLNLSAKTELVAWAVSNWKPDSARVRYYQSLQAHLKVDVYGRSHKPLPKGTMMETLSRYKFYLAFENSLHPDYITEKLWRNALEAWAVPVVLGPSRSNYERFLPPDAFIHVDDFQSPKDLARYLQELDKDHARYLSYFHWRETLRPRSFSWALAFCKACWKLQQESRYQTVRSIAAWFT

[2] = target: T1, 4-galactosyl-N-acetylglucosaminide 3-alpha-L-fucosyltransferase FUT5; test: Inhibitory activity against fucosyltransferase (FucT V) in the presence of 10 mM fucosyl acceptor N-acetyllactosamine
[3] = target: T1, 4-galactosyl-N-acetylglucosaminide 3-alpha-L-fucosyltransferase FUT5; test: Inhibitory activity against fucosyltransferase (FucT V) in the presence of 1 mM fucosyl acceptor N-acetyllactosamine

Row | Structure (SMILES) | pIC50 [1] | pIC50 [2] | pIC50 [3]
1 | Nc1nc2c(ncn2[C@@H]2O[C@H](COP(=O)(O)OP(=O)(O)O)[C@@H](O)[C@H]2O)c(=O)[nH]1 | 4.17 |  | 
2 | C[C@@H]1N[C@H](COP(=O)(O)OP(=O)(O)OC[C@H]2O[C@@H](n3cnc4c(O)nc(N)nc43)[C@H](O)[C@@H]2O)[C@@H](O)[C@@H]1O |  | 4.09 | 4.35
3 | NCCOP(=O)(O)OP(=O)(O)OC[C@H]1O[C@@H](n2cnc3c(O)nc(N)nc32)[C@H](O)[C@@H]1O | < 3.00 |  | 
